Assay [1] concerns the target T1, ΔF508-CFTR (Homo sapiens, UniProt P13569, DEL508-508).
T1 construct: host or cells: CFBE41o-, doxycycline-inducible
In words: CFTR cell surface levels using HRP-tagged ΔF508-CFTR expressing CFBE cells, intrinsic corrector capacity. The note with it: HRP-tagged ΔF508-CFTR expressing CFBE41o- cells, compound alone (intrinsic corrector capacity), 20 hours at 33° C.; for EC50: read-out: EC50. It counts as cell-based. Also noted: % Activation: concentration or dose not given beside the values. An excerpt:
Measuring CFTR Cell Surface Levels Using HRP-Tagged ΔF508-CFTR Expressing CFBE Cells
The HRP-tagged ΔF508-CFTR cell assay measures the expression of CFTR-ΔF508 at the plasma membrane. CFTR-ΔF508 has a folding defect leading to absence of protein at the plasma membrane. This assay is used to evaluate the capacity of compounds to increase the expression of CFTR-ΔF508 at the plasma membrane. The CFTR-ΔF508 is tagged with HRP (horse radish peroxidase enzyme) within the ECL4 (Extracellular loop 4) of CFTR (Phuan, P.-W. et al. Synergy-based small-molecule screen using a human lung epithelial cell line yields ΔF508-CFTR correctors that augment VX-809 maximal efficacy. Mol. Pharmacol. 86, 42-51 (2014)). When HRP-tagged ΔF508-CFTR is present at the plasma membrane, the HRP enzyme activity can be measured. The amount of CFTR-ΔF508 that can be rescued to the plasma membrane is correlated with the amount of functional enzyme that can be measured.
There are several ways to measure the capacity of compounds to rescue CFTR-ΔF508 to the plasma membrane; either compounds are evaluated on their own and the impact on plasma membrane levels is measured or compounds are evaluated in combination with a co-corrector, i.e. a compound that rescues CFTR-ΔF508 to the plasma membrane but rescue can be enhanced by addition of compounds due to a complementary mode of action.
Activity of Compounds for their Intrinsic Corrector Capacity:
For this purpose doxycycline-inducible ΔF508-CFTR-HRP expressing CFBE4lo− cells (obtained from Gergely Lukacs, McGill University) were maintained in MEM (Gibco; 31095) supplemented with 10% fetal bovine serum (Hyclone; SV30160.03) under puromycin (3 μg/mL) and G418 selection (0.2 mg/mL). For compound testing, cells were seeded at 4000 cells/well in white 384-well plates (Greiner; 781080) in 50 μL medium containing 0.5 μg/mL doxycycline and incubated for 68 hours at 37° C., 5% CO2. On day four, […] compounds diluted in PBS were added to the plates at a final DMSO concentration of 0.1%. All compound plates contained negative controls (DMSO) and positive controls ([…] corrector, 3-[(2R,4R)-4-({[1-(2,2-difluoro-1,3-benzodioxol-5-yl)cyclopropyl]carbonyl}amino)-7-methoxy-3,4-dihydro-2H-chromen-2-yl]benzoic acid). Cell plates were incubated at 33° C., 5% CO2 for 20 hours. On day five, the cells were washed five times with phosphate-buffered saline, and HRP activity was assayed by the addition of 50 μL/well of HRP substrate (SuperSignal™ West Pico Chemiluminescent Substrate, Thermo Scientific; 34080). After incubation for 15 minutes in the dark, chemiluminescence was measured using a plate reader (EnVision®, Perkin Elmer). Raw data were normalized to percentage activity values using the equation: 100×(Sample−Negative control)/(Positive control−Negative Control).

Assay [2] deals with T1, ΔF508-CFTR. As to the kind of experiment: CFTR cell surface levels using HRP-tagged ΔF508-CFTR expressing CFBE cells, in the presence of a co-corrector. It counts as cell-based. The note with it: HRP-tagged ΔF508-CFTR CFBE cells, in the presence of 3 μM co-corrector; for EC50: read-out: EC50. Summed up:
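Chemiluminescent read-out of surface HRP (15 min, dark) after PBS washes. Activity is normalized as 100×(sample−DMSO)/(3 μM co-corrector alone−DMSO).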

SMILES strings stand for the structures.

T1 sequence (P13569 with tags, fused parts or gaps DEL508-508): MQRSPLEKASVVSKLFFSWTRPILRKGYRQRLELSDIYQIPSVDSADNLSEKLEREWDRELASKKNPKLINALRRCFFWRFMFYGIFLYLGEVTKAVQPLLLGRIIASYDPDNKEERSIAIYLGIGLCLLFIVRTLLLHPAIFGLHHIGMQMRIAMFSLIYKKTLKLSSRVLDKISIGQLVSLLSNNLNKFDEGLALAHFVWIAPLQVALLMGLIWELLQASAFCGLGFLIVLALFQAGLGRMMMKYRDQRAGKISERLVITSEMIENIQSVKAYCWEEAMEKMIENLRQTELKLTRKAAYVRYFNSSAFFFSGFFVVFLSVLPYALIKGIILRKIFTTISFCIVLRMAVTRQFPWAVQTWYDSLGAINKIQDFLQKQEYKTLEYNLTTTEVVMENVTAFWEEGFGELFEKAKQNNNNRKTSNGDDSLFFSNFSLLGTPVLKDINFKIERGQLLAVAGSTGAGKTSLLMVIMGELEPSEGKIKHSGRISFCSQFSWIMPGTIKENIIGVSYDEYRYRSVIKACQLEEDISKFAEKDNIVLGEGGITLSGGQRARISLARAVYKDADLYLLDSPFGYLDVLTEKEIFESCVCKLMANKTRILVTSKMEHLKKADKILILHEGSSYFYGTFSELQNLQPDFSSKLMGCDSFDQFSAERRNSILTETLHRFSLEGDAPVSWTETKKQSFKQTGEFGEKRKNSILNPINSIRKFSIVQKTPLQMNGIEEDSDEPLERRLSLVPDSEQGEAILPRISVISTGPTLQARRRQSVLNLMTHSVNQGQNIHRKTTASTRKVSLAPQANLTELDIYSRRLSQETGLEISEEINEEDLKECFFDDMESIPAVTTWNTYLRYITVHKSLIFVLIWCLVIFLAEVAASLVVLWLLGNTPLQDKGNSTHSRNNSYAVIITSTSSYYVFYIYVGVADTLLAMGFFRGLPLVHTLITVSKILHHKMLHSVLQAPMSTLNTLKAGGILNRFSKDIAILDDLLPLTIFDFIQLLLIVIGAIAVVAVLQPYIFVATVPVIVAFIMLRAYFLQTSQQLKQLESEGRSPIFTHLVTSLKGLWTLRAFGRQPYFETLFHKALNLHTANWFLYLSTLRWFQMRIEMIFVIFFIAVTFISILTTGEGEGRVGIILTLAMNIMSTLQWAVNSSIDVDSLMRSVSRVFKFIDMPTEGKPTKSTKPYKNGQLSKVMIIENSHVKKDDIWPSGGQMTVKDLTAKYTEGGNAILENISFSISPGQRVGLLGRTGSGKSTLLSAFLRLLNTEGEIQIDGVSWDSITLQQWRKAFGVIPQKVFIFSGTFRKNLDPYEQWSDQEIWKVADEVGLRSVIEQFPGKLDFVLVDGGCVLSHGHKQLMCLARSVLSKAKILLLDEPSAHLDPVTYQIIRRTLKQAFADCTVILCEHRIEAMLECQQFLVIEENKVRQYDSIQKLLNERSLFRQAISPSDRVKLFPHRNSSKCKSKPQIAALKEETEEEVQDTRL

Take `CC(C)(C)c1nn(C2CCCC2)c2nc(C(=O)NS(C)(=O)=O)cc(-c3ccc(N4CCOCC4)nc3)c12` [Compound 12, 3-tert-butyl-1-cyclopentyl-N-(methanesulfonyl)-4-[6-(morpholin-4-yl)pyridin-3-yl]-1H-pyrazolo[3,4-b]pyridine-6-carboxamide]: on ΔF508-CFTR [1], the “% Activation” value turned out to be 161.15% and the EC50 is 1.07 µM. In addition, on ΔF508-CFTR [2], the “% Activation” value came to 364.15% and the 50% effective concentration (EC50) was found to be 0.714 µM.
On the same counts, the results for `COc1ccc(-c2cc(C(=O)NS(C)(=O)=O)nc3c2c(C)nn3-c2ccccc2)cc1` [Compound 14, N-(methanesulfonyl)-4-(4-methoxyphenyl)-3-methyl-1-phenyl-1H-pyrazolo[3,4-b]pyridine-6-carboxamide] are 148.9%, 1.43 µM, 335.6% and 1.37 µM.
In the case of `CCS(=O)(=O)NC(=O)c1cc(-c2ccc(OC)cc2)c2c(C)nn(-c3ccccc3)c2n1` [Compound 15, N-(ethanesulfonyl)-4-(4-methoxyphenyl)-3-methyl-1-phenyl-1H-pyrazolo[3,4-b]pyridine-6-carboxamide], the “% Activation” value at ΔF508-CFTR [1] stood at 151.65%; at ΔF508-CFTR [2], 346.15%. Also, the EC50 on ΔF508-CFTR [1] stood at 1.19 µM; at ΔF508-CFTR [2] it was 0.852 µM.
On the same counts, the results for `CC(C)c1nn(-c2cccc(N3CCCC3)c2)c2nc(C(=O)NS(C)(=O)=O)cc(-c3ccc(N4CCOCC4)cc3)c12` [Compound 16, N-(methanesulfonyl)-4-[4-(morpholin-4-yl)phenyl]-3-(propan-2-yl)-1-[3-(pyrrolidin-1-yl)phenyl]-1H-pyrazolo[3,4-b]pyridine-6-carboxamide] are 469.75%, 649.9%, 0.543 µM and 0.459 µM.
Turning to `COc1ccc(-n2nc(C(C)C)c3c(-c4ccc(N(C)C)cc4)cc(C(=O)NS(C)(=O)=O)nc32)cn1` [Compound 17, 4-[4-(dimethylamino)phenyl]-N-(methanesulfonyl)-1-(6-methoxypyridin-3-yl)-3-(propan-2-yl)-1H-pyrazolo[3,4-b]pyridine-6-carboxamide], the “% Activation” value at ΔF508-CFTR [1] was 140.75%; on ΔF508-CFTR [2], 320%. The half-maximal effective concentration (EC50) on ΔF508-CFTR [1] was found to be 1.23 µM; at ΔF508-CFTR [2], 1.12 µM.
In the same order, the values of `COc1ccc(-c2cc(C(=O)NS(C)(=O)=O)nc3c2c(C)nn3-c2ccc(C)c(Cl)c2)cc1` [Compound 18, 1-(3-chloro-4-methylphenyl)-N-(methanesulfonyl)-4-(4-methoxyphenyl)-3-methyl-1H-pyrazolo[3,4-b]pyridine-6-carboxamide] are 64.675%, 217.8%, 2.27 µM and 1.11 µM.
On the same counts, the results for `CCS(=O)(=O)NC(=O)c1cc(N2CCCCC2)c2c(C)nn(-c3ccccc3)c2n1` [Compound 19, N-(ethanesulfonyl)-3-methyl-1-phenyl-4-(piperidin-1-yl)-1H-pyrazolo[3,4-b]pyridine-6-carboxamide] are 140.85%, 304.05%, 2.65 µM and 1.63 µM.
On the same counts, the results for `CC(C)c1nn(-c2ccccc2)c2nc(C(=O)NS(C)(=O)=O)cc(-c3cnc(N4CCOCC4)nc3)c12` [Compound 20, N-(methanesulfonyl)-4-[2-(morpholin-4-yl)pyrimidin-5-yl]-1-phenyl-3-(propan-2-yl)-1H-pyrazolo[3,4-b]pyridine-6-carboxamide] are 210.3%, 417.5%, 0.669 µM and 0.546 µM.
With `Cc1nn(-c2ccc(F)cc2F)c2nc(C(=O)NS(C)(=O)=O)cc(-c3ccc(N4CCOCC4)cc3)c12` [Compound 21, 1-(2,4-difluorophenyl)-N-(methanesulfonyl)-3-methyl-4-[4-(morpholin-4-yl)phenyl]-1H-pyrazolo[3,4-b]pyridine-6-carboxamide], on ΔF508-CFTR [1], the “% Activation” value is reported as 264.25% and the EC50 came out at 0.685 µM. Also, on ΔF508-CFTR [2], the “% Activation” value stood at 440.1% and the EC50 turned out to be 0.525 µM.
On the same counts, the results for `CC(C)c1nn(C2CCCCC2)c2nc(C(=O)NS(C)(=O)=O)cc(-c3ccc(N(C)C)nc3)c12` [Compound 22, 1-cyclohexyl-4-[6-(dimethylamino)pyridin-3-yl]-N-(methanesulfonyl)-3-(propan-2-yl)-1H-pyrazolo[3,4-b]pyridine-6-carboxamide] are 161.5%, 0.732 µM, 371.55% and 0.503 µM.
In the same order, the values of `Cc1nn(-c2cc(F)cc(F)c2)c2nc(C(=O)NS(C)(=O)=O)cc(-c3ccc(N4CCOCC4)cc3)c12` [Compound 23, 1-(3,5-difluorophenyl)-N-(methanesulfonyl)-3-methyl-4-[4-(morpholin-4-yl)phenyl]-1H-pyrazolo[3,4-b]pyridine-6-carboxamide] are 287.3%, 0.883 µM, 468.85% and 0.573 µM.
In the same order, the values of `Cc1cc(C)cc(-n2nc(C)c3c(-c4ccc(N5CCOCC5)cc4)cc(C(=O)NS(C)(=O)=O)nc32)c1` [Compound 24, 1-(3,5-dimethylphenyl)-N-(methanesulfonyl)-3-methyl-4-[4-(morpholin-4-yl)phenyl]-1H-pyrazolo[3,4-b]pyridine-6-carboxamide] are 193.75%, 0.888 µM, 380.5% and 0.744 µM.
Take `Cc1nn(-c2ccc(F)c(F)c2)c2nc(C(=O)NS(C)(=O)=O)cc(-c3ccc(N4CCOCC4)cc3)c12` [Compound 25, 1-(3,4-difluorophenyl)-N-(methanesulfonyl)-3-methyl-4-[4-(morpholin-4-yl)phenyl]-1H-pyrazolo[3,4-b]pyridine-6-carboxamide]: the “% Activation” value on ΔF508-CFTR [1] stood at 247.23%; at ΔF508-CFTR [2], 437.17%. In addition, the EC50 at ΔF508-CFTR [1] was found to be 0.997 µM; on ΔF508-CFTR [2], 0.64 µM.
On the same counts, the results for `Cc1nn(-c2cccc(C(F)(F)F)c2)c2nc(C(=O)NS(C)(=O)=O)cc(-c3ccc(N(C)C)cc3)c12` [Compound 26, 4-[4-(dimethylamino)phenyl]-N-(methanesulfonyl)-3-methyl-1-[3-(trifluoromethyl)phenyl]-1H-pyrazolo[3,4-b]pyridine-6-carboxamide] are 202.25%, 449.7%, 1.85 µM and 1.55 µM.
Take `COc1ccc(-c2cc(C(=O)NS(C)(=O)=O)nc3c2c(C)nn3-c2cccc(C)c2)cc1` [Compound 27, N-(methanesulfonyl)-4-(4-methoxyphenyl)-3-methyl-1-(3-methylphenyl)-1H-pyrazolo[3,4-b]pyridine-6-carboxamide]: at ΔF508-CFTR [1], the “% Activation” value is reported as 145.5% and the EC50 stood at 1.22 µM. Further, on ΔF508-CFTR [2], the “% Activation” value is given as 365.2% and the EC50 amounted to 0.714 µM.
On the same counts, the results for `CCS(=O)(=O)NC(=O)c1cc(-c2ccc(OC)cc2)c2c(C)nn(-c3cccc(C)c3)c2n1` [Compound 28, N-(ethanesulfonyl)-4-(4-methoxyphenyl)-3-methyl-1-(3-methylphenyl)-1H-pyrazolo[3,4-b]pyridine-6-carboxamide] are 149.7%, 1.22 µM, 354.45% and 0.942 µM.
